Assay results published in patent US8420642B2, “Pyridine derivatives useful as glucokinase activators” (Merck Patent GmbH, priority 2007, dated 2013).

Legend:
[1] = target: T1, glucokinase (GK), human enzyme (Homo sapiens, UniProt P35557); experiment: Glucokinase Activation Screening Assay (coupled enzyme assay with PK/LDH, NADH decline at 340 nm); format: biochemical; conditions: for fold activation (human): relative to control incubation with 2 mM glucose; for EC50: 2 mM glucose
T1 sequence (P35557 1-465): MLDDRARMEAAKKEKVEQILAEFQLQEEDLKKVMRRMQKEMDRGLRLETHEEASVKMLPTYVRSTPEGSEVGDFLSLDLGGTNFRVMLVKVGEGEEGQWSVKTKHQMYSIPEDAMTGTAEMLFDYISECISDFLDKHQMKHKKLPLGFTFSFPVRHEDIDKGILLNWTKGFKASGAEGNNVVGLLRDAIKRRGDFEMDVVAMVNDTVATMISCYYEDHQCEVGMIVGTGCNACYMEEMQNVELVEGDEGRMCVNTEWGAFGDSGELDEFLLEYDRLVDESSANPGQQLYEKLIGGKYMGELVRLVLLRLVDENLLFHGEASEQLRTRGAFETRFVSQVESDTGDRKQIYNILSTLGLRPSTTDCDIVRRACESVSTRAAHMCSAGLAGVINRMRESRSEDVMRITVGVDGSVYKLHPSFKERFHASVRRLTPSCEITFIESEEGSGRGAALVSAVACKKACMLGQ
Experimental: Glucokinase Activation Screening Assay
GK activity (human or rat enzyme) is measured by an coupled enzyme assay using pyruvate kinase (PK) and lactate dehydrogenase (LDH) as coupling enzymes. GK activity is calculated from the decline in NADH monitored photometrically with a microtiter plate (MTP) reader at 340 nm. For screening purposes, the GK assay is routinely run in a 384-MTP format, in a total volume of 33 μl/well. 10 μl of the ATP-regeneration solution (in HEPES-buffer*, pH 7.0, 6.73 U/ml pyruvate kinase, 6.8 U/ml lactate dehydrogenase) and 10 μl of the glucokinase-/glucose solution (15 μg/ml, 6.6 mM glucose in HEPES-buffer*, pH 7.0; the concentration of the glucose stock-solution was 660 mM in Millipore H2O) were mixed together with 3 μl of a 10% DMSO solution (in HEPES-buffer*, pH 7.0) containing 3.3-fold the amounts of the compounds to achieve final compound concentrations in the range between 1 nM to 30 μM (sometimes 300 μM) in the assay solution (s. below). The solutions were mixed for 5 sec, and after a centrifugation at 243×g for 5 min, the solutions were preincubated for 25 min at room temperature.
The reaction was started by the addition of 10 μl of the NADH-/ATP-solution (4.29 mM NADH, 4.95 mM ATP, in HEPES-buffer*). The MTP was shaken for 5 sec., and then, the absorbance at 340 nm was monitored continuously in a MTP-reader (TECAN Spectro fluor plus) for the next 27 min (with a MTP-cycling time of 199 sec.). The final concentrations of the various components were as follows: 49.5 mM Hepes, pH 7.0, 1.49 mM PEP, 1.3 mM NADH, 49.5 mM KCl, 4.96 mM MgCl2, 1.5 mM Mg-ATP, 1.98 mM DTT, 2.04 U/ml pyruvate kinase, 2.06 U/ml lactate-dehydrogenase, 0.91% DMSO, 0.15 μg/well glucokinase, and test compounds in the range between 1 nM and 300 μM.
The change in the optical density (ΔOD340 nm) in the presence of the compound was expressed relative to the ΔOD340 nm, ctrl of the control incubation (in the presence of 2 mM glucose and 0.91% DMSO), taking into account the optical density of the blank sample (incubation in the absence of 2 mM glucose). For the determination of the half maximal effective concentration (EC50), the %−Ctrl-values were plotted in a semi-logarithmic graph against the conc. of the compound of interest. The data points were fitted to a sigmoid curve function (f(x)=((%−Ctrlmax%−Ctrlmin)/(1−(EC50/x**^n(Hill)))+%−Ctrlmin)) by a non-linear regression analysis.
* Hepes-buffer (50 mM Hepes, pH 7.0, 5 mM MgCl2, 50 mM KCl, 1.5 mM PEP, 0.1% BSA). DTT was added to the Hepes-buffer from a 200× stock solution (in Millipore H2O) freshly each day. The final concentration of DTT in the Hepes-buffer is 2 mM.

Compound | melting point [°C] | fold activation (human) [1] | EC50 [1] [µM]
Cc1csc(Nc2ccc(Br)cn2)n1 [A1, (5-bromo-pyridine-2-yl)-(4-methyl-thiazole-2-yl)-amine] | 241.5 to 242.6 | D (fold activation: 1.2-5 μM = D) | 
BrCc1csc(Nc2ccc(Br)cn2)n1 [A2, (4-bromomethyl-thiazole-2-yl)-(5-bromo-pyridine-2-yl)-amine] |  | D (fold activation: 1.2-5 μM = D) | 1 to 10
Brc1ccc(Nc2nc(Cn3ccnc3)cs2)nc1 [A3, (5-bromo-pyridine-2-yl)-(4-imidazole-1-ylmethyl-thiazole-2-yl)-amine] |  | D (fold activation: 1.2-5 μM = D) | 1 to 10
CCOC(=O)c1csc(Nc2ccc(Br)cn2)n1 [A4, 2-(5-bromo-pyridine-2-ylamino)-thiazole-4-carboxylic acid ethyl ester] | 299.8 to 300.8 | D (fold activation: 1.2-5 μM = D) | 
CC(=O)OCc1csc(Nc2ccc(Br)cn2)n1 [A5, acetic acid 2-(5-bromo-pyridine-2-ylamino)-thiazole-4-ylmethyl ester] | 200.9 to 201.6 | D (fold activation: 1.2-5 μM = D) | 1 to 10
OCc1csc(Nc2ccc(Br)cn2)n1 [A6, [2-(5-bromo-pyridine-2-ylamino)-thiazole-4-yl]-methanol] | 207 to 209 | D (fold activation: 1.2-5 μM = D) | 
NCCSCc1csc(Nc2ccc(Br)cn2)n1 [A7, [4-(2-amino-ethylsulfanylmethyl)-thiazole-2-yl]-(5-bromopyridine-2-yl)-amine] |  | D (fold activation: 1.2-5 μM = D) | > 10
c1ccc(Oc2ccc(Nc3nccs3)nc2)cc1 [A8, (5-phenoxy-pyridine-2-yl)-thiazole-2-yl-amine] | 161.4 to 162.4 | D (fold activation: 1.2-5 μM = D) | > 10
CC(=O)OCc1csc(Nc2ccc(Oc3ccccc3)cn2)n1 [A9, acetic acid 2-(5-phenoxy-pyridine-2-ylamino)-thiazole-4-ylmethyl ester] | 158.5 to 160.5 | D (fold activation: 1.2-5 μM = D) | > 10
OCc1csc(Nc2ccc(Oc3ccccc3)cn2)n1 [A10, [2-(5-phenoxy-pyridine-2-ylamino)-thiazole-4-yl]-methanol] | 130 to 131 | E (5-10 μM = E) | 1 to 10
c1ccc(Sc2ccc(Nc3nccs3)nc2)cc1 [A12, (5-phenylsulfanyl-pyridine-2-yl)-thiazole-2-yl-amine] |  | D (fold activation: 1.2-5 μM = D) | > 10
[O-][S+](c1ccccc1)c1ccc(Nc2nccs2)nc1 (centres unmarked) [A13, (5-phenylsulfinyl-pyridine-2-yl)-thiazole-2-yl-amine] |  | D (fold activation: 1.2-5 μM = D) | 
O=S(=O)(c1ccccc1)c1ccc(Nc2nccs2)nc1 [A14, (5-phenylsulfonyl-pyridine-2-yl)-thiazole-2-yl-amine] |  | D (fold activation: 1.2-5 μM = D) | > 10
COCCOc1cc(Oc2ccccc2)cnc1Nc1nccs1 [A20, [3-(2-methoxy-ethoxy)-5-phenoxy-pyridine-2-yl]-thiazole-2-yl-amine] | 140.6 to 140.9 | E (5-10 μM = E) | 1 to 10
c1ccc(Oc2cnc(Nc3nccs3)c(OC3CCCC3)c2)cc1 [A21, (3-cyclopentyloxy-5-phenoxy-pyridine-2-yl)-thiazole-2-yl-amine] |  | E (5-10 μM = E) | 0.01 to 1
CCCOc1ccc(Nc2ccn(C)n2)nc1 [A23, (1-methyl-1H-pyrazole-3-yl)-(5-propoxy-pyridine-2-yl)-amine] |  | D (fold activation: 1.2-5 μM = D) | 
COCC(C)Oc1cc(Oc2ccccc2)cnc1Nc1nccs1 (centres unmarked) [A28, [3-(2-Methoxy-1-methyl-ethoxy)-5-phenoxy-pyridine-2-yl]-thiazole-2-yl-amine] |  | E (5-10 μM = E) | 1 to 10
c1ccc(Oc2cnc(Nc3nccs3)c(OCC3CCCC3)c2)cc1 [A29, (3-cyclopentylmethoxy-5-phenoxy-pyridine-2-yl)-thiazole-2-yl-amine] |  | D (fold activation: 1.2-5 μM = D) | 0.01 to 1
c1ccc(COc2ccc(Nc3nccs3)nc2)cc1 [A30, (5-benzyloxy-pyridine-2-yl)-thiazole-2-yl-amine] |  | D (fold activation: 1.2-5 μM = D) | 
COCCOc1cc(Oc2cccnc2)cnc1Nc1nccs1 [A31, [3-(2-methoxy-ethoxy)-5-(pyridine-3-yloxy)-pyridine-2-yl]-thiazole-2-yl-amine] |  | E (5-10 μM = E) | 
COCCOc1cc(Oc2ccc(S(C)(=O)=O)cc2)cnc1Nc1nccs1 [A32, [5-(4-methanesulfonyl-phenoxy)-3-(2-methoxy-ethoxy)pyridine-2-yl]-thiazole-2-yl-amine] |  | E (5-10 μM = E) | 1 to 10
CS(=O)(=O)c1ccc(Oc2ccc(Nc3ccccn3)nc2)cc1 [A94] |  | E (5-10 μM = E) | 
COCCOc1cc(Oc2ccccc2)cnc1Nc1cnccn1 [A95] |  | D (fold activation: 1.2-5 μM = D) | 
COCCOc1cc(Oc2ccccc2)cnc1Nc1ccccn1 [A96] |  | D (fold activation: 1.2-5 μM = D) | 
COCCOc1cc(Oc2ccccc2)cnc1Nc1ccn(C)n1 [A97] |  | E (5-10 μM = E) | 
